# Assay results: PMC9115112, “A2B adenosine receptor antagonists rescue lymphocyte activity in adenosine-producing patient-derived cancer models” (Journal for Immunotherapy of Cancer, 2022)
# Legend:
# [1] = tested on: autologous TILs and patient-derived sarcoma spheroids; assay: Spheroid infiltration by autologous TILs (real-time imaging and flow cytometry); type: cell-based, human; settings: antagonist 12 µM, 3 days
# Procedure: Spheroids were prepared using patient-derived sarcoma cell lines. 1×10^4 cells were seeded per well in 96-well ultra-low attachment plate with DMEM-F12 media containing 20% FBS and 1% PS for 5 days. 3×10^4 CSFE-labeled autologous expanded TILs, at Effector:target ratio of 3:1, were added to the spheroid at day five with A2BAR antagonism treatment at 12 µM. After 3 days, spheroid was removed and split into two groups—IN and OUT. […] Spheroids were washed with PBS at least two times. GentleMACS tumor dissociation kit (Miltenyi Biotec) was used to digest the spheroids for FC analysis.
# Brightfield and phase contrast images under 4X objective were acquired every 6 hours on IncuCyte S3 system (Essen BioScience). For breast cancer patient-derived spheroid culture, 1×10^4 cells per well were seeded with A2BAR antagonist at 12 µM treatment for 6 days real time imaging. For spheroid infiltration, after the addition of CSFE-labeled autologous expanded TILs and treatment with A2BAR antagonist at 12 µM, green fluorescence images were acquired for 3 days. All spheroid invasion analysis was performed using top hat segmentation with IncuCyte software.
# Cell surface was stained with mouse monoclonal antihuman antibodies against CD3, CD4, CD8, CD45RA, CD56 and CD19 listed in online supplemental table 1. Cell surface antibodies and live/dead (L/D) marker were incubated with samples at 4°C for 20 min after washing two times with flow cytometry buffer containing 5% FBS in PBS. For spheroid infiltrated TIL phenotyping, digested IN and OUT spheroids were stained with cell surface marker and analyzed on NovoCyte (ACEA Bioscience) with the use of FlowJo software (Tree Star) by gating single cell based on forward and side scatters. A representative gating strategy for CD8 naïve T cells is shown in online supplemental figure 3A. Compensated flow cytometry standard (FCS) files with only live cells were concatenated for downstream tSNE analysis using the ‘cytofkit’ R package (https://github.com/JinmiaoChenLab/cytofkit).
# Figure 6 Infiltration of TILs into autologous patient-derived sarcoma spheroids after A2BAR antagonist treatment. (A) Representative real-time imaging of spheroid TIL infiltration over 3 days under 4× objective. Green areas demarcate CFSE-labeled TILs infiltrated into the red boundary tumor spheroid. (B) Relative TIL infiltration into autologous spheroids (n=8 donors) measured by flow cytometer. Antagonist 12 µM was added with CSFE-labeled TILs after spheroid formation on day five. (C) Representative flow cytometry plot of CFSE positive TILs in CD73+ tumor spheroid. (D) tSNE analysis and (E) annotated pie chart of TILs within (IN) and outside of (OUT) the spheroids without treatment (n=8 donors, indicated within the pie chart). Wilcoxon Rank Sum test was performed to compare the various IN vs OUT adhesion markers. Expression of (F) CD3 T cells, (G) CD49a+ CD103+ among CD8 T cells and (H) CD69 MFI among CD4 T cells IN and OUT of the spheroids without treatment (n=8 donors). (I) Relative CD8/CD4 TIL ratio IN the spheroids. Differential expression of relative (J–L). CD49a+ CD103+ cells IN the spheroids (n=8 donors) of CD3, CD8, and CD4 TILs. Antagonist 12 µM was added for J–L. Outlier is presented as diamond shape and defined by Tukey’s rule, which is not included in statistical analysis. Box plots with minimum, first quartile, median, third quartile, and maximum are presented. Unpaired and non-parametric statistical analysis—Mann-Whitney test was performed against untreated control with *p<0.05, **p<0.01, ***p<0.001, and ****p<0.0001. CFSE, carboxyfluorescein succinimidyl ester; TIL, tumor infiltrating lymphocyte; tSNE, T-distributed stochastic neighboring embedding. TEXT PRINTED IN THE PICTURE: (C) ISAM-R56A: TILs 13.0 DOUBTS OF THE COPYIST ABOUT THIS PICTURE: Panel C, ISAM-R56A, TILs: the print is small, 13.0 could be 13.8 or 13.6 / Panel C also prints a gate label 'TILs 3.17' for the Untreated control. […]
# hA2B (A2BAR) = target: T1, hA2B (A2BAR) (Homo sapiens, UniProt P29275); assay: cAMP assay, NECA-stimulated, HEK-293 cells with transfected A2BAR; type: cell-based; settings: n=3, read-out: Kb hA2B (cAMP production)
# T1 construct: expressed in transfected cells; host or cells: HEK-293
# T1 sequence (P29275 1-332): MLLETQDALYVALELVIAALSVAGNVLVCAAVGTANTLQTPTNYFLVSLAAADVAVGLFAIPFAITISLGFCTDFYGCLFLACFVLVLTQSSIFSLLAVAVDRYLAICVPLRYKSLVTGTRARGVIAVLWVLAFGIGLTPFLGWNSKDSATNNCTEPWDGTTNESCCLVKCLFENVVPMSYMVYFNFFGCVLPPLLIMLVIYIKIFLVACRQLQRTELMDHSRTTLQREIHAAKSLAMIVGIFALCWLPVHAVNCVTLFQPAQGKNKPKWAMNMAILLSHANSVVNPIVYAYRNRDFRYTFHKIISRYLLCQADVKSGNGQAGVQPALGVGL
# Procedure: Assays were performed in transfected A2BAR using a cyclic AMP (cAMP) enzyme immunoassay kit (Amersham Biosciences) following previously described protocols.[28 30] HEK-293 cells were seeded (10,000 cells/well) in 96-well culture plates and incubated at 37°C in an atmosphere with 5% CO2 in Eagle’s Medium Nutrient Mixture F-12 (EMEM F-12), containing 10% fetal calf serum (FCS) and 1% L-Glutamine. Cells were washed three times with 200 µL assay medium (EMEM-F12 and 25 mM HEPES pH=7.4) and pre-incubated with assay medium containing 30 µM rolipram and test compounds at 37°C for 15 min. Ten µM NECA was incubated for 15 min at 37°C (total incubation time 30 min). Reaction was stopped with lysis buffer supplied in the kit and the enzyme immunoassay was carried out for detection of intracellular cAMP at 450 nm in an Ultra Evolution detector (Tecan). The dose-response curve of NECA-elicited cAMP formation was used to determine the initial choice of A2BAR antagonist concentration (online supplemental figure 2).
Structure (SMILES),TIL infiltration into autologous sarcoma spheroids vs untreated (real-time imaging) ([1]; n=8 donors),Kb (hA2B (A2BAR)) [µM],"TIL infiltration into spheroids by flow cytometry (CSFE positive, CD73 negative TILs) [1]","TIL infiltration into autologous sarcoma spheroids vs untreated (real-time imaging) ([1]; n=8 donors, listed as ISAM–R56A)","Median increased TIL infiltration vs untreated ([1]; n=8 donors, not statistically significant) [%]"
"CC1=C(C(=O)OC(C)C)C(c2ccco2)n2c(nc3ccccc32)N1 (stereo not shown) [ISAM-140, isopropyl 4-(furan-2-yl)−2-methyl-1,4-dihydrobenzo[4 5] imidazo[1,2 a]pyrimidine-3-carboxylate]",did not have any effect,0.027,,,
CC1=C(C(=O)OC(C)C)C(c2ccco2)n2c(nc3ccccc32)N1Cc1ccccc1F (stereo not shown) [ISAM-R56A],overall improved TIL infiltration,0.00615,significantly enhanced TIL infiltration,improved TILs infiltration,
CC1=C(C(=O)OC(C)C)C(c2ccoc2)n2c(nc3cc(Cl)ccc32)N1 (stereo not shown) [ISAM-M89A],,,,,7
